In patent US20130005833A1, “PHOTO-RESPONSIVE SUPRAMOLECULAR HYDROGELS” (priority 2011, published 2013):
Azo = N-terminal azobenzene

Columns and labels:
Assay type in all cases: physicochemical
[1] = Hydrogelation conditions: lowest concentration to gel water at specific pH; design: key to pH (hydrogelation condition): —: unable to form hydrogel under tested conditions; conditions: for pH (to form a hydrogel): azobenzene substituted bio-active short peptides
Method: Preparation of Hydrogels. A homogeneous solution of azobenzene-substituted short peptides was prepared in a glass vial via pH adjustment and heating. Upon cooling to room temperature, a hydrogel formed for Azo-Gln-Phe-Ala; Azo-Lys-Phe-Ala; Azo-Leu- Phe-Ala; Azo-D-Lys-D-Phe-D-Ala; and Azo-Arg-Phe-Ala. However, Azo-Lys-D-Phe-D-Ala and Azo-D-Lys-Phe-Ala, sonification was necessary to facilitate the hydrogelation. Hydrogels of Azo-Ser-Phe-Ala; Azo-Gln-Tyr-Ala; Azo-Glu-Tyr-Ala; and Azo-Glu-Phe-Ala were prepared by acidifying the basic solution to the pH shown in Table 1.
Test on pH and salt effects on gelation properties. pH effect: Azo-dipeptides were mixed with a small quality of water and the mixture were adjusted to the desired pH with 1M HCl or NaOH, then heated to about 80-90° C. to obtain a clear solution. A yellow hydrogel formed upon cooling to room temperature. The lowest concentration for hydrogelation at a specific pH was obtained by successive dilution of the hydrogel using water, at the same pH that of the hydrogelation, to the point when hydrogel could not form.

[2] = Photo-response tests on the hydrogels (UV irradiation); design: key to tinit(min): time needed for initial collapse of the gel upon UV irradiation: —: no obvious change upon UV irradiation; conditions: for tinit(min): time needed for initial collapse of the gel upon UV irradiation: high pressure mercury lamp (500 w); for total irradiation time needed for the gel to begin to collapse (tinit): UV irradiation (365 nm), Azo-Lys-Phe-Ala: partial phase transition; for photo-response of the gel upon UV irradiation (in words): Azo-Glu-Phe-Ala: even after 5 hours of UV-irradiation
Method: (§1) Photo-response tests on the hydrogels. The light source for the UV irradiation was a high pressure mercury lamp (500 w) with a filter to cut off visible light. A control experiment was performed in parallel using the same hydrogel in a tin foil covered glass vial to exclude the possibility of response induced by any external stimulus other than light irradiation. The photo-response of the hydrogels was confirmed by observation of the gel to solution phase change of the sample under irradiation, but not on the sample of negative control. In one example, ^1H NMR of Azo-Lys-D-Ala-D-Ala in d-MeOH was used to confirm that after UV irradiation for 2 minutes 11% of the compound was in the cis-configuration, and after 10 minutes, 51% was in the cis-configuration.

[3] = Temperature for gel to solution phase transition; conditions: for T (° C.): temperature for gel to solution phase transition: azobenzene substituted tripeptide hydrogels
[4] = Rheology test on the hydrogel before and after UV irradiation
Method: Rheology test on the hydrogel before and after UV irradiation. All rheological measurements were performed using an ARES-G2 Rheometer with a cone and a plate (25 mm diameter plate and 0.0999 rad cone angle), and a gap opening between the cone and the plate of 0.0282 mm. The dynamic strain sweep test was carried out at 6.282 rad/s, and then dynamic frequency sweep test was investigated at critical strain, which was determined from storage-strain profile.

[5] = Salt effect on gelation properties; conditions: buffer of higher concentration of Na2HPO4/NaH2PO4; FIG. 1B
Method: Salt effect: Buffers at different pHs (5 and 6) and different concentrations (0.05M, 0.1M, 0.2M and 0.5M) were prepared by mixing Na2HPO4 and NaH2PO4 with different concentration. The azo-dipeptides were mixed with a small quality of buffer and heated to about 80-90° C. to obtain a clear solution. Yellow hydrogels formed upon cooling to room temperature. The lowest concentration for hydrogelation at specific pH was obtained by successive dilution of the hydrogel by the buffer with the same concentration of salt to the point when the hydrogel no longer formed.

[6] = 1H NMR determination of cis-configuration after UV irradiation; conditions: 1H NMR in d-MeOH
Method: as §1

[7] = azobenzene substituted dipeptides
[8] = azobenzene substituted tripeptides, pH at which the lowest gelling concentration applies

Azo-Arg-Ala
pH (hydrogelation condition) [1, 7]: —

Azo-Glu-Lys
pH (hydrogelation condition) [1, 7]: —

Azo-D-Lys-D-Phe-D-Ala
tinit(min): time needed for initial collapse of the gel upon UV irradiation [2]: 15 min | pH (hydrogelation condition) [1, 8]: 1.6 | T (° C.): temperature for gel to solution phase transition [3]: 60 °C

Azo-VYGGG
pH (to form a hydrogel) [1]: 2.8

Azo-Lys-Ala
pH (hydrogelation condition) [1, 7]: —

Azo-Gln-Phe-Ala
total irradiation time needed for the gel to begin to collapse (tinit) [2]: ≤ 3 min | tinit(min): time needed for initial collapse of the gel upon UV irradiation [2]: 3 min | time to complete conversion of the hydrogel into a homogeneous non-viscous solution ([2]; UV light (365 nm), without external heating): under 20 minutes | pH (hydrogelation condition) [1, 8]: 7.8 | T (° C.): temperature for gel to solution phase transition [3]: 65 °C

Azo-Lys-D-Phe-D-Ala
photo-response of the gel upon UV irradiation (in words) [2]: fast responses | total irradiation time needed for the gel to begin to collapse (tinit) [2]: 7 min | tinit(min): time needed for initial collapse of the gel upon UV irradiation [2]: 7 min | pH (hydrogelation condition) [1, 8]: 1.2 | decrease in the storage modulus of the hydrogel after UV irradiation ([4]; dynamic frequency sweep test, FIG. 4B): greater than 100 times | storage modulus of the hydrogel before UV irradiation relative to after UV irradiation ([4]; dynamic strain sweep test, FIG. 4A): 70 times | temperature at which the gel turned into a solution upon heating [3]: 42 °C | T (° C.): temperature for gel to solution phase transition [3]: 42 °C

Azo-Phe-Glu
pH (hydrogelation condition) [1, 7]: 2.1

Azo-Glu-Ala
pH (hydrogelation condition) [1, 7]: 2.4

Azo-Gln-Tyr-Ala
tinit(min): time needed for initial collapse of the gel upon UV irradiation [2]: — | pH (hydrogelation condition) [1, 8]: 3.1 | T (° C.): temperature for gel to solution phase transition [3]: 81 °C

Azo-Gln-Gln
pH (hydrogelation condition) [1, 7]: —^b

Azo-Arg-Gln
pH (hydrogelation condition) [1, 7]: —

Azo-Glu-Tyr
pH (hydrogelation condition) [1, 7]: 4.8 | salt effect on concentration required for hydrogelation [5]: almost negligible

Azo-Phe-Ser
pH (hydrogelation condition) [1, 7]: 2.0

Azo-Phe-Ala
pH (hydrogelation condition) [1, 7]: 7.8

Azo-Gln-Ala
pH (hydrogelation condition) [1, 7]: 2.5

Azo-Arg-Phe
pH (hydrogelation condition) [1, 7]: —

Azo-Lys-Phe-Ala
total irradiation time needed for the gel to begin to collapse (tinit) [2]: 30 min | tinit(min): time needed for initial collapse of the gel upon UV irradiation [2]: 30 min | pH (hydrogelation condition) [1, 8]: 1.6 | T (° C.): temperature for gel to solution phase transition [3]: 59 °C

Azo-YSV
pH (to form a hydrogel) [1]: 1.8

Azo-Gln-Tyr
pH (hydrogelation condition) [1, 7]: 4.8

Azo-D-Lys-Phe-Ala
tinit(min): time needed for initial collapse of the gel upon UV irradiation [2]: 4 min | pH (hydrogelation condition) [1, 8]: 1.4 | T (° C.): temperature for gel to solution phase transition [3]: 39 °C

Azo-Ala-Tyr
pH (hydrogelation condition) [1, 7]: 5.1 | salt effect on concentration required for hydrogelation [5]: decreased the concentration required for hydrogelation

Azo-Glu-Tyr-Ala
tinit(min): time needed for initial collapse of the gel upon UV irradiation [2]: — | pH (hydrogelation condition) [1, 8]: 3.0 | T (° C.): temperature for gel to solution phase transition [3]: 69 °C

Azo-Arg-Phe-Ala
tinit(min): time needed for initial collapse of the gel upon UV irradiation [2]: 8 min | pH (hydrogelation condition) [1, 8]: 1.6 | T (° C.): temperature for gel to solution phase transition [3]: 47 °C

Azo-Glu-Phe-Ala
photo-response of the gel upon UV irradiation (in words) [2]: No photo-response was observed | tinit(min): time needed for initial collapse of the gel upon UV irradiation [2]: —^d | pH (hydrogelation condition) [1, 8]: 4.7 | T (° C.): temperature for gel to solution phase transition [3]: 85 °C

Azo-Tyr-Tyr
pH (hydrogelation condition) [1, 7]: 4.8 | salt effect on concentration required for hydrogelation [5]: decreased the concentration required for hydrogelation

Azo-Tyr-Lys
pH (hydrogelation condition) [1, 7]: 2.2

Azo-Ser-Phe
pH (hydrogelation condition) [1, 7]: 5.7

Azo-Ser-Ala
pH (hydrogelation condition) [1, 7]: —

Azo-Phe-Phe
pH (hydrogelation condition) [1, 7]: 9.7

Azo-Lys-D-Ala-D-Ala
compound in the cis-configuration ([6]; after UV irradiation for 2 minutes): 11% | compound in the cis-configuration ([6]; after UV irradiation for 10 minutes): 51%

Azo-Phe-Tyr
pH (hydrogelation condition) [1, 7]: 8.6

Azo-Glu-Phe
pH (hydrogelation condition) [1, 7]: 2.5

Azo-GAGAS
pH (to form a hydrogel) [1]: 3.9

Azo-Leu-Phe-Ala
tinit(min): time needed for initial collapse of the gel upon UV irradiation [2]: 15 min | pH (hydrogelation condition) [1, 8]: 8.6 | T (° C.): temperature for gel to solution phase transition [3]: 71 °C

Azo-Ser-Phe-Ala
tinit(min): time needed for initial collapse of the gel upon UV irradiation [2]: —^d | pH (hydrogelation condition) [1, 8]: 3.7 | T (° C.): temperature for gel to solution phase transition [3]: 54 °C

Azo-Gly-Phe-Ala
photo-response of the gel upon UV irradiation (in words) [2]: fast responses | total irradiation time needed for the gel to begin to collapse (tinit) [2]: 5 min | tinit(min): time needed for initial collapse of the gel upon UV irradiation [2]: 5 min | pH (hydrogelation condition) [1, 8]: 7.5 | T (° C.): temperature for gel to solution phase transition [3]: 48 °C

Azo-IKVAV
pH (to form a hydrogel) [1]: 4.5

Azo-Ala-Phe
pH (hydrogelation condition) [1, 7]: 9.5

Azo-LGAGGAG (Azo-LGAGGAG-OH)
pH (to form a hydrogel) [1]: 1.6

Azo-Tyr-Ala
pH (hydrogelation condition) [1, 7]: 3.0

Azo-Arg-Lys
pH (hydrogelation condition) [1, 7]: —
